# According to US20240252677A1, “ONE-COMPONENT DELIVERY SYSTEM FOR NUCLEIC ACIDS” (The Trustees of the University of Pennsylvania, priority 2021, published 2024):
# How the values were obtained:
# liver = experiment: In vivo mRNA delivery, IVIS imaging of organs: liver; parameters: species or system mice; key to Organs with luminescence: liver: strong: Strong meant the luminescence intensity in that organ was relatively high, compared to other organs; weak: Weak meant the luminescence intensity in that organ was relatively low, compared to other organs; conditions: Table 17; mice, IVIS, 4-6 h after injection; intensity relative to other organs
# Description: The exposure time was 1 min.
# Tissue luminescence signal was measured on the IVIS imaging system using an exposure time of 60 seconds using medium binning (binning=8) to ensure that the signal obtained was within operative detection range. […] Bioluminescence imaging was performed as described above.
# Tissue luminescence signal was measured on the IVIS imaging system using a certain exposure time (60, 30 or 15 seconds) and medium binning (binning=8) to ensure that the signal obtained was within operative detection range.
# [1] = Stability of DNPs by DLS after storage at 5° C.; format: physicochemical; parameters: key to Original size distribution type (DLS curve) / Size distribution type (DLS curve): U: DLS curve showed unimodal size distribution; B: DLS curve showed bimodal size distribution; M: DLS curve showed multimodal size distribution; conditions: for pH Sample: DNPs: IAJD 4.0 mg/mL + Luc-mRNA 0.1 mg/mL, injection in acetate buffer pH 4.00; for PDI / Size (d, nm) / Original size distribution type (DLS curve): IAJD 4.0 mg/mL + Luc-mRNA 0.1 mg/mL; for PDI / Size (d, nm): acetate buffer; for Original size distribution type (DLS curve): before storage, acetate buffer pH 4.00
# Method in brief: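 DNPs in acetate buffer sized by DLS after storage at 5 °C. Stability ranked Excellent, Good or Not stable according to retention, shrinkage or growth of original size and narrowing or broadening of size distribution.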
# [2] = Dimensions (size, PDI) of DNPs co-assembled from IAJDs and Luc-mRNA by DLS; format: physicochemical
# Method in brief: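 Hydrodynamic size and PDI were read by dynamic light scattering at 23 °C, 175° backscatter, 633 nm. Particles formed by fast injection of ethanolic IAJD stock (80 mg/mL) into nucleoside-modified luciferase mRNA (stock 4.0 mg/mL) in 10 mM acetate pH 4.0, 5 s vortex.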
# [3] = Table 16, DNPs from IAJD 4 mg/mL and Luc-mRNA 0.10 mg/mL by injection in acetate buffer (10 mM, pH 4.0)
# [4] = Table 17, DNPs used in vivo, IAJD 4 mg/mL, Luc-mRNA 0.10 mg/mL, acetate pH 4.0
SMILES,Organs with luminescence: liver (liver),pH Sample [1],Original size distribution type (DLS curve) [1],"PDI [2, 3]","Size (d, nm) [2, 3] [nm]","PDI [2, 4]","Size (d, nm) [2, 4] [nm]",Size distribution type (DLS curve) ([1]; after 27 days at 5° C.),PDI ([1]; after 27 days at 5° C.),"Size (d, nm) ([1]; after 27 days at 5° C.) [nm]",also measured
"CCCCCCCCCCCCCOc1cc(COC(=O)CCCN2CCN(CCO)CC2)cc(OCC(CC)CCCC)c1 (centres unmarked) [IAJD 162, 3-((2-Ethylhexyl)oxy)-5-(tridecyloxy)benzyl 4-(4-(2-hydroxyethyl)piperazin-1-yl)butanoate]","liver (weak),",4.66,(B),0.301,191,0.301,191,–,–,–,"Size distribution type (DLS curve) ([1]; after 21 days at 5° C.): (B); PDI ([1]; after 21 days at 5° C.): 0.291; Size (d, nm) ([1]; after 21 days at 5° C.): 182 nm"
"CCCCCCCCCCCCCOc1cc(COC(=O)CCCN2CCN(C)CC2)cc(OCC(CC)CCCC)c1 (centres unmarked) [IAJD 161, 3-((2-Ethylhexyl)oxy)-5-(tridecyloxy)benzyl 4-(4-methylpiperazin-1-yl)butanoate]","liver (strong),",4.97,(U),0.235,129,0.235,129,–,–,–,"Size distribution type (DLS curve) ([1]; after 21 days at 5° C.): (U); PDI ([1]; after 21 days at 5° C.): 0.226; Size (d, nm) ([1]; after 21 days at 5° C.): 125 nm"
"CCCCCCCCCCCCCOc1cc(COC(=O)CCCN2CCN(CCO)CC2)cc(OCCCCCCCCCCC)c1 [IAJD 117, 3-(Tridecyloxy)-5-(undecyloxy)benzyl 4-(4-(2-hydroxyethyl)piperazin-1-yl)butanoate]","liver (weak),",4.40,(B),0.367,255,0.367,255,–,–,–,"Size distribution type (DLS curve) ([1]; after 70 days at 5° C.): (B); PDI ([1]; after 70 days at 5° C.): 0.312; Size (d, nm) ([1]; after 70 days at 5° C.): 323 nm"
"CCCCCCCCCCCCCCCCCCOc1cc(COC(=O)CCCN2CCN(C)CC2)cc(OCCCCCCCCCCCCC)c1 [IAJD 177, 3-(Octadecyloxy)-5-(tridecyloxy)benzyl 4-(4-methylpiperazin-1-yl)butanoate]","liver (strong),",4.76,(B),0.275,159,0.275,159,–,–,–,"Size distribution type (DLS curve) ([1]; after 21 days at 5° C.): (B); PDI ([1]; after 21 days at 5° C.): 0.218; Size (d, nm) ([1]; after 21 days at 5° C.): 153 nm"
"CCCCCCCCCCCCCCCCCCOc1cc(COC(=O)CCCN2CCN(C)CC2)cc(OCCCCCCCCCCCCCCC)c1 [IAJD 153, 3-(Octadecyloxy)-5-(pentadecyloxy)benzyl 4-(4-methylpiperazin-1-yl)butanoate]","liver (strong),",4.52,(U),0.238,232,0.238,232,–,–,–,"Size distribution type (DLS curve) ([1]; after 35 days at 5° C.): (U); PDI ([1]; after 35 days at 5° C.): 0.232; Size (d, nm) ([1]; after 35 days at 5° C.): 222 nm"
"CCCCCCCCCCCCCCCCOc1cc(COC(=O)CCCN2CCN(C)CC2)cc(OCCCCCCCCCCCCC)c1 [IAJD 173, 3-(Hexadecyloxy)-5-(tridecyloxy)benzyl 4-(4-methylpiperazin-1-yl)butanoate]","liver (strong),",4.79,(U),0.301,139,0.301,139,–,–,–,"Size distribution type (DLS curve) ([1]; after 21 days at 5° C.): (B); PDI ([1]; after 21 days at 5° C.): 0.376; Size (d, nm) ([1]; after 21 days at 5° C.): 132 nm"
"CCCCCCCCCCCCCCCOc1cc(COC(=O)CCCN2CCN(CCO)CC2)cc(OCCCCCCCCCCCCC)c1 [IAJD 146, 3-(Pentadecyloxy)-5-(tridecyloxy)benzyl 4-(4-(2-hydroxyethyl)piperazin-1-yl)butanoate]","liver (strong),",4.40,(U),0.276,231,0.276,231,(U),0.285,227,–
"CCCCCCCCCCCCCCCOc1cc(COC(=O)CCCN2CCN(C)CC2)cc(OCC(CC)CCCC)c1 (centres unmarked) [IAJD 135, 3-((2-Ethylhexyl)oxy)-5-(pentadecyloxy)benzyl 4-(4-methylpiperazin-1-yl)butanoate]","liver (strong),",4.95,(U),0.267,92,0.267,92,(U),0.278,92,–
"CCCCCCCCCCCOc1cc(COC(=O)CCCN2CCN(CCO)CC2)cc(OCC(CC)CCCC)c1 (centres unmarked) [IAJD 130, 3-((2-Ethylhexyl)oxy)-5-(undecyloxy)benzyl 4-(4-(2-hydroxyethyl)piperazin-1-yl)butanoate]","liver (weak),",4.50,(U),0.271,172,0.271,172,–,–,–,"Size distribution type (DLS curve) ([1]; after 62 days at 5° C.): (U); PDI ([1]; after 62 days at 5° C.): 0.282; Size (d, nm) ([1]; after 62 days at 5° C.): 149 nm"
"CCCCCCCCCCCCCCCOc1cc(COC(=O)CCCN2CCN(CCO)CC2)cc(OCCCCCCCCCC)c1 [IAJD 142, 3-(Decyloxy)-5-(pentadecyloxy)benzyl 4-(4-(2-hydroxyethyl)piperazin-1-yl)butanoate]","liver (strong),",4.52,(B),0.293,230,0.293,230,(U),0.266,214,–
"CCCCCCCCCCCCCCCOc1cc(COC(=O)CCCN2CCN(CCO)CC2)cc(OCC(CC)CCCC)c1 (centres unmarked) [IAJD 136, 3-((2-Ethylhexyl)oxy)-5-(pentadecyloxy)benzyl 4-(4-(2-hydroxyethyl)piperazin-1-yl)butanoate]","liver (weak),",4.57,(U),0.307,149,0.307,149,(U),0.296,153,–
"CCCCCCCCCCCCCCCOc1cc(COC(=O)CCCN2CCN(CCO)CC2)cc(OCCCCCCCCCCC)c1 [IAJD 119, 3-(Pentadecyloxy)-5-(undecyloxy)benzyl 4-(4-(2-hydroxyethyl)piperazin-1-yl)butanoate]","liver (weak),",4.36,(M),0.459,163,0.459,163,–,–,–,"Size distribution type (DLS curve) ([1]; after 62 days at 5° C.): (B); PDI ([1]; after 62 days at 5° C.): 0.489; Size (d, nm) ([1]; after 62 days at 5° C.): 254 nm"
"CCCCCCCCCCCCCCCOc1cc(COC(=O)CCCN2CCN(C)CC2)cc(OCCCCCCCCCC)c1 [IAJD 141, 3-(Decyloxy)-5-(pentadecyloxy)benzyl 4-(4-methylpiperazin-1-yl)butanoate]","liver (strong),",4.62,(U),0.313,158,0.313,158,(U),0.286,156,–
"CCCCCCCCCCCCCCCCOc1cc(COC(=O)CCCN2CCN(C)CC2)cc(OCCCCCCCCCCCCCCC)c1 [IAJD 149, 3-(Hexadecyloxy)-5-(pentadecyloxy)benzyl 4-(4-methylpiperazin-1-yl)butanoate]","liver (weak),",4.50,(B),0.304,193,0.304,193,–,–,–,"Size distribution type (DLS curve) ([1]; after 19 days at 5° C.): (B); PDI ([1]; after 19 days at 5° C.): 0.291; Size (d, nm) ([1]; after 19 days at 5° C.): 193 nm"
